*1 amine or outer side, *2 acyl side, *3 side chain or, on linkers, in order; H or OH if unused. Where a SMILES comes first, the peptide text is derived from it. Side-chain parts run from the residue outwards. [ ]: non-standard residue; d: D form. The star is where a group is joined. C18 diacid = O=C(O)CCCCCCCCCCCCCCCCC(=O)*; γGlu = O=C(O)[C@H](CCC(=O)[*:2])N[*:1]; Pentanoyl = CCCCC(=O)*; AEEA = NCCOCCOCC(=O)O; Aib = CC(C)(N)C(=O)O

A short description of series [1]: Pharmacokinetics in male Sprague Dawley rats after subcutaneous administration. In kind it is in vivo. To be noted: plasma, rat, IV, 0.05 mg/kg.
In a further series the target is T1, human CRF2a receptor (Homo sapiens, UniProt Q13324).
T1 construct: expressed in transfected cells; host or cells: TeloHEAC cells
T1 sequence (Q13324 1-411): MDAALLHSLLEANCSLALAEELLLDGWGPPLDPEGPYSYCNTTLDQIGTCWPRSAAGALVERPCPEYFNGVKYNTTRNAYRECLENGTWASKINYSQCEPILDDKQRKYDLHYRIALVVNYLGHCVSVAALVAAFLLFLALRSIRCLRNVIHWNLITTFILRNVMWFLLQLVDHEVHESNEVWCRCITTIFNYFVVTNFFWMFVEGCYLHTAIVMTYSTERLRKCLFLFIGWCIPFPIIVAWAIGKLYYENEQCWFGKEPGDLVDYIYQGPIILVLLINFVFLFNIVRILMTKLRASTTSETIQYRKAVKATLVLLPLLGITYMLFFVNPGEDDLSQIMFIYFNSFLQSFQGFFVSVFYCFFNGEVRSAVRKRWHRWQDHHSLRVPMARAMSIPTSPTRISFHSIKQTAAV
Nature of the series: Activity at human CRF2a receptor, cAMP functional assay in TeloHEAC cells. In kind it is cell-based. Conditions: TeloHEAC cells stably expressing human CRF2a receptor, relative to urocortin 2 (100 nM = 100%). In outline:
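TeloHEAC cells stably expressing human CRF2a (10000 cells/well, suspended in HBSS/20 mM HEPES with 2 mM IBMX) were exposed to compounds for 30 min at 37 °C. cAMP was read as the 665/620 nm fluorescence ratio after 1 h at room temperature. EC50 was derived relative to 100 nM urocortin 2, set as 100%.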

The next series has as its target T2, CFR1R receptor (Homo sapiens, UniProt P34998).
T2 construct: host or cells: CHO-K1 (clone 2)
T2 sequence (P34998 24-415): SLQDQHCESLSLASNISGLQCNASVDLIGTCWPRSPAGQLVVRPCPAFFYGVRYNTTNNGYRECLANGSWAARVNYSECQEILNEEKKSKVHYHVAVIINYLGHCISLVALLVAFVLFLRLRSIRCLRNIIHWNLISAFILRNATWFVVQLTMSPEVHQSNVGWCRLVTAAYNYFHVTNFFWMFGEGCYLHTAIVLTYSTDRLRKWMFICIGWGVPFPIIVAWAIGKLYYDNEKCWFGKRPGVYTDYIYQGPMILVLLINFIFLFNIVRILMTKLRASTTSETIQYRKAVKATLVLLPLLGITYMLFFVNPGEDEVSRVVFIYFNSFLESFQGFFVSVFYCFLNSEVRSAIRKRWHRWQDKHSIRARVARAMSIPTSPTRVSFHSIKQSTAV
Put plainly: Activity at anti-target CFR1R receptor, cAMP assay in CRF1R-overexpression CHO-K1 cells. In kind it is cell-based. To be noted: 100% = Sauvagine at 100 nM; for EC50: cAMP. In outline:
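cAMP readout in CRF1R-overexpressing CHO-K1 cells (clone 2), run as for the TeloHAEC assay at 4000 cells/well final. Cells came from cryopreserved banks. Sauvagine at 100 nM defined 100% activation.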

A short description of series [2]: In vitro subcutaneous tissue supernatant (SCts) stability and metabolite identification, rat. Also noted: remaining at 2 h: dose or concentration left out as unconfirmed. In kind it is in vitro ADME. To be noted: male, Sprague Dawley; rat subcutaneous tissue supernatant (SCts), 37° C, 2 h.
The nature of series [3]: Chemical stability in buffer (pH 7.4 / pH 4.5), % purity loss. In kind it is physicochemical. Conditions: 40° C. vs 5° C., 14 or 28 days; for Buffer stability pH 7.4 % purity loss: 100 mM phosphate buffer pH 7.4. In outline: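 Compounds dissolved at 10 mg/mL target in 100 mM phosphate (pH 7.4) or 100 mM acetate (pH 4.5) buffer for 1 h at room temperature, then centrifuged. Diluted supernatant stored at 5 °C or 40 °C for 14 or 28 days; % purity loss by LC-UV.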

In the next series the test system is Sprague Dawley rats. Put plainly: Effect on systolic blood pressure, telemetry in Sprague Dawley rats. In kind it is in vivo, rat. Conditions: 0.1 mg/kg SC; for Systolic blood pressure (Mean) % change from baseline, 8 h / Systolic blood pressure (Mean) % change from baseline, 12 h / Systolic blood pressure (Mean) % change from baseline, 24 h: n=2; for Duration of action: last time point with an effect on BP still observed. Put shortly:
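Sprague Dawley rats with abdominal-aorta telemetry catheters, recovered ≥10 days, received 0.1 mg/kg SC of compound or vehicle. Systolic pressure recorded 1 h pre-dose as baseline, then continuously up to 48 hours, expressed as % change from baseline; duration of action is last time point with a BP effect (n=2).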

One may read the AUC(0-t) as the area under the concentration-time curve up to a stated or last time point. The half-life is the time needed for the level to fall by half in the phase considered. What is called EC50 is the concentration needed to bring the measured effect to its halfway point. In general, fraction remaining refers to what is left of the initial amount, in per cent. In series [1], `CC[C@H](C)[C@H](NC(C)=O)C(=O)N[C@H](C(=O)N[C@@H](CC(C)C)C(=O)N[C@@H](CO)C(=O)N[C@@H](CC(C)C)C(=O)N[C@@H](CC(=O)O)C(=O)N[C@@H](C(=O)N1CCC[C@H]1C(=O)N[C@H](C(=O)N[C@@H](CCCCN)C(=O)N[C@@H](CC(C)C)C(=O)N[C@@H](CCCCNC(=O)CC[C@H](NC(=O)CCCCCCCCCCCCCCCCC(=O)O)C(=O)O)C(=O)N[C@@H](CCCCN)C(=O)N[C@H](C(=O)N[C@@H](CC(C)C)C(=O)N[C@@H](CC(C)C)C(=O)N[C@@H](CCC(=O)O)C(=O)N[C@@H](CCC(N)=O)C(=O)N[C@@H](CCC(=O)O)C(=O)N[C@@H](CCCCN)C(=O)N[C@@H](CCC(N)=O)C(=O)N[C@@H](CCCCN)C(=O)N[C@@H](C)C(=O)N[C@@H](CCC(N)=O)C(=O)N[C@@H](CCCNC(=N)N)C(=O)N[C@@H](CCC(=O)O)C(=O)N[C@@H](CCC(N)=O)C(=O)N[C@@H](C)C(=O)N[C@@H](CCC(=O)O)C(=O)N[C@H](C(=O)N[C@@H](CC(N)=O)C(=O)NC(C)(C)C(=O)N[C@@H](CCC(N)=O)C(=O)N[C@H](C(=O)N[C@@H](CC(C)C)C(=O)N[C@@H](C)C(=O)N[C@@H](CCC(N)=O)C(=O)N[C@H](C(N)=O)C(C)C)[C@@H](C)CC)[C@@H](C)O)[C@@H](C)CC)[C@@H](C)CC)C(C)C)C(C)C` [compound 189] (Ac-IVLSLD[dV]PIKLK([γGlu-C18 diacid])KILLEQEKQKAQREQAETN[Aib]QILAQV-NH2) gave an area under the curve AUC(0-t) of 5040 ng·h/mL and a half-life of 7.5 h. This compound had a concentration giving a half-maximal response (EC50) on human CRF2a receptor of 290 pM. Further, on CFR1R receptor, the “Emax (% I)” value is given as 9 % I and the EC50 was greater than 250000 pM. Also, the fraction remaining at 2 h in series [2] turned out to be 67%. For the same compound, the “Buffer stability pH 7.4 % purity loss” value in series [3] is on record as 0.0/Not Tested %. Moreover, in the series with Sprague Dawley rats, the “Systolic blood pressure (Mean) % change from baseline, 8 h” value is −27%; the “Systolic blood pressure (Mean) % change from baseline, 12 h” value was −25%; the “Systolic blood pressure (Mean) % change from baseline, 24 h” value is reported as −13%; the Duration of action was greater than 24 h.
In series [1], `CCCCC(=O)N[C@H](C(=O)N[C@@H](CC(C)C)C(=O)N[C@@H](CO)C(=O)N[C@@H](CC(C)C)C(=O)N[C@@H](CC(=O)O)C(=O)N[C@@H](C(=O)N1CCC[C@H]1C(=O)N[C@H](C(=O)N[C@@H](CCCCN)C(=O)N[C@@H](CC(C)C)C(=O)N[C@@H](CCCCNC(=O)CC[C@H](NC(=O)CCCCCCCCCCCCCCCCC(=O)O)C(=O)O)C(=O)N[C@@H](CCCCN)C(=O)N[C@H](C(=O)N[C@@H](CC(C)C)C(=O)N[C@@H](CC(C)C)C(=O)N[C@@H](CCC(=O)O)C(=O)N[C@@H](CCC(N)=O)C(=O)N[C@@H](CCC(=O)O)C(=O)N[C@@H](CCCCN)C(=O)N[C@@H](CCC(N)=O)C(=O)N[C@@H](CCCCN)C(=O)N[C@@H](CCCCN)C(=O)N[C@@H](CCC(N)=O)C(=O)N[C@@H](CCCNC(=N)N)C(=O)N[C@@H](CCC(=O)O)C(=O)N[C@@H](CCC(N)=O)C(=O)N[C@@H](C)C(=O)N[C@@H](CCC(=O)O)C(=O)N[C@H](C(=O)N[C@@H](CC(N)=O)C(=O)NC(C)(C)C(=O)N[C@@H](CCC(N)=O)C(=O)N[C@H](C(=O)N[C@@H](CC(C)C)C(=O)N[C@@H](C)C(=O)N[C@@H](CCC(N)=O)C(=O)N[C@H](C(N)=O)C(C)C)[C@@H](C)CC)[C@@H](C)O)[C@@H](C)CC)[C@@H](C)CC)C(C)C)C(C)C` [compound 193] (Pentanoyl-VLSLD[dV]PIKLK([γGlu-C18 diacid])KILLEQEKQKKQREQAETN[Aib]QILAQV-NH2) gave an AUC(0-t) of 2340 ng·h/mL and a half-life of 4.9 h. Moreover, the EC50 at human CRF2a receptor was 170 pM. In addition, at CFR1R receptor, the “Emax (% I)” value is recorded as 20 % I and the EC50 was greater than 250000 pM. Moreover, the amount remaining at 2 h in series [2] was found to be 56%. Moreover, the “Buffer stability pH 7.4 % purity loss” value in series [3] was 0.0/Not Tested %. Besides, in the series with Sprague Dawley rats, the “Systolic blood pressure (Mean) % change from baseline, 8 h” value is listed as −20%; the “Systolic blood pressure (Mean) % change from baseline, 12 h” value is recorded as −12%; the “Systolic blood pressure (Mean) % change from baseline, 24 h” value is reported as −8%; the Duration of action is on record as greater than 24 h.
Turning to `CC[C@H](C)[C@H](NC(C)=O)C(=O)N[C@H](C(=O)N[C@@H](CC(C)C)C(=O)N[C@@H](CO)C(=O)N[C@@H](CC(C)C)C(=O)N[C@@H](CC(=O)O)C(=O)N[C@@H](C(=O)N1CCC[C@H]1C(=O)N[C@H](C(=O)N[C@@H](CCCCN)C(=O)N[C@@H](CC(C)C)C(=O)N[C@@H](CCCCNC(=O)COCCOCCNC(=O)CC[C@H](NC(=O)CCCCCCCCCCCCCCCCC(=O)O)C(=O)O)C(=O)N[C@@H](CCCCN)C(=O)N[C@H](C(=O)N[C@@H](CC(C)C)C(=O)N[C@@H](CC(C)C)C(=O)N[C@@H](CCC(=O)O)C(=O)N[C@@H](CCC(N)=O)C(=O)N[C@@H](CCC(=O)O)C(=O)N[C@@H](CCCCN)C(=O)N[C@@H](CCC(N)=O)C(=O)N[C@@H](CCCCN)C(=O)N[C@@H](CCCCN)C(=O)N[C@@H](CCC(N)=O)C(=O)N[C@@H](CCCNC(=N)N)C(=O)N[C@@H](CCC(=O)O)C(=O)N[C@@H](CCC(N)=O)C(=O)N[C@@H](C)C(=O)N[C@@H](CCC(=O)O)C(=O)N[C@H](C(=O)N[C@@H](CC(N)=O)C(=O)NC(C)(C)C(=O)N[C@@H](CCC(N)=O)C(=O)N[C@H](C(=O)N[C@@H](CC(C)C)C(=O)N[C@@H](C)C(=O)N[C@@H](CCC(N)=O)C(=O)N[C@H](C(N)=O)C(C)C)[C@@H](C)CC)[C@@H](C)O)[C@@H](C)CC)[C@@H](C)CC)C(C)C)C(C)C` [compound 203] (Ac-IVLSLD[dV]PIKLK([AEEA-γGlu-C18 diacid])KILLEQEKQKKQREQAETN[Aib]QILAQV-NH2), in series [1], the AUC(0-t) worked out at 4860 ng·h/mL and the half-life is 6.2 h. The concentration giving a half-maximal response (EC50) on human CRF2a receptor was 430 pM. In addition, at CFR1R receptor, the “Emax (% I)” value stood at 3 % I and the EC50 is greater than 250000 pM. In addition, the share remaining at 2 h in series [2] stood at 65%. For the same compound, the “Buffer stability pH 4.5 % purity loss” value in series [3] (100 mM acetate buffer pH 4.5) is 0.0/0.0 ^ %. In addition, the “Buffer stability pH 7.4 % purity loss” value in series [3] was 0.0/0.0 ^ %. Moreover, in the series with Sprague Dawley rats, the “Systolic blood pressure (Mean) % change from baseline, 8 h” value is −18%; the “Systolic blood pressure (Mean) % change from baseline, 12 h” value is reported as −11%; the “Systolic blood pressure (Mean) % change from baseline, 24 h” value is given as 2%; the Duration of action was determined as 23 h.

The values are drawn from patent US20260001928A1 (CORTERIA PHARMACEUTICALS, priority 2022, published 2026).
